Experiments:
[1] = system: 5637 BECs; test: β-hexosaminidase release assay; format: cell-based, human; conditions: for release of β-hexosaminidase from E. coli-infected BECs: E. coli ORN103(pSH2)-infected 5637 BECs, NiCl2 2 mM, H89 10 μM; for release of β-hexosaminidase into extracellular media: uninfected 5637 BECs, 1 hr, forskolin 100 μM, dibutyryl-cAMP 1 mM, calcium ionophore 1 μM
[2] = system: E. coli ORN103(pSH2)-infected 5637 BECs; test: Bacterial exocytosis assay; format: cell-based, human; conditions: inhibitors added during gentamicin incubation; H89 10 μM, NiCl2
Description: In this assay, 5637 BECs were infected with bacteria as above. Infection continued for 60 min, and then the cells were washed with culture medium (including 100 μg/ml gentamicin and 100 mM methyl α-D-mannopyranoside (Sigma, St. Louis, Mo.)) for an additional 30 min. The cells were then washed twice and then allowed to incubate for 1-4 h with fresh culture medium containing 100 mM methyl α-D-mannopyranoside. At each time point, the culture medium and one wash of 100 μl of culture medium with methyl α-D-mannopyranoside were collected and pooled. The inhibitors H89 (10 μM) and NiCl2 ([…]) were added during the gentamicin incubation and left in the culture medium. All homogenates and pooled culture medium were cultured for colony counts. All exocytosis assays had n=12 wells of a 96-well plate.

[3] = system: IL-6; test: IL-6 ELISA of urine; format: in vivo, mouse
Description: In this assay, 8-week-old female C3H/HeJ mice were infected with E. coli CI5 as above. After 6 h, the mice were intraperitoneally injected with 100 μl of PBS, with or without 10 mg/kg forskolin. Urine was collected at 6 and 24 h after infection, using clean catch methods, and the samples were stored at −80° C. The concentration of IL-6 in the urine was determined using the mouse IL-6 ELISA kit (eBioscience, San Diego, Calif.) according to the manufacturer's protocol.

[4] = system: UPEC strain CI5; test: In vivo gentamicin protection assay, UPEC colonization of the bladder; design: species or system mouse; conditions: IP Fsk/Cather Fsk, 1 hr treatment
Description: An in vivo gentamicin protection assay was used to determine the effect of forskolin on UPEC colonization of the bladder. In this example, UPEC strain CI5 was injected into the bladder via catheter to initiate a urinary tract infection. After 2 hours of infection, the mice were re-catheterized, the urine was removed, and the bladder was treated with 100 uM forskolin in PBS for 1 hour. After the forskolin treatment, 100 ug/ml gentamicin in PBS was injected into the bladder via catheter for 30 minutes. The bladders were then removed, washed in sterile PBS, and homogenized. The homogenates were plated on LB agar for overnight colony counts at various dilutions. Control mice were treated with PBS alone instead of forskolin plus PBS. The top half of Table 3 represents the raw colony counts while the bottom half of Table 3 represents the calculated bladder load of UPEC strain C15 based on the dilutions.

[5] = system: E. coli CI5; test: In vivo bladder infection with 3-d-long forskolin regimen; design: species or system mouse; conditions: C3H/HeJ mice, forskolin 10 mg/kg i.p. at 6, 24 and 48 h; at 72 h; P≦0.03
Description: In this procedure, 8-week-old female C3H/HeJ mice were infected with E. coli CI5 as above. At 6, 24 and 48 h after infection, the mice were intraperitoneally injected with 100 μl PBS, with or without 10 mg/kg forskolin. At 72 h after infection, bladders were aseptically removed and plated for colony counts.

[6] = system: S. enterica SL1344; test: In vivo bladder infection, 2-h-long infection, intracellular bacterial CFU; design: species or system mouse; conditions: BALB/c mice, forskolin 2 h after infection, i.p. 10 mg/kg and by catheter 100 μM
Description: (§1) In this procedure, 8-week-old female BALB/c mice were anesthetized with sodium pentobarbital and then inoculated transurethrally with 50 μl of either E. coli CI5 or a bacterial suspension (approximately 1.0×10^8 CFU) suspended in PBS. After 2 h, the bladders were removed aseptically. Then the bladders were either bisected and fixed with 2% paraformaldehyde plus 2% gluteraldehyde in PBS (for transmission electron microscopy) or frozen for immunofluorescence microscopy. For the 2-h-long infections with E. coli and S. enterica SL1344, BALB/c mice were infected as above. After 2 h, the mice were intraperitoneally injected with 100 μl PBS (with or without 10 mg/kg forskolin) and intravesicularly instilled, for 1 h, with 100 μg/ml gentamicin in PBS (with or without 100 μM forskolin). For the 24-h-long infections, BALB/c mice were infected. After 24 h, the mice were intravesicularly instilled with 50 μl of PBS (with or without 100 μM forskolin) for 1 h. The 100 μM forskolin in PBS was replaced by 100 μg/ml gentamicin in PBS for 30 min. The bladders were then removed aseptically and homogenized them in 0.1% Triton X-100 in PBS. Homogenate dilutions were plated for colony counts.

[7] = system: E. coli CI5; test: as above; design: species or system mouse; conditions: BALB/c mice, forskolin 2 h after infection, i.p. 10 mg/kg and by catheter 100 μM
Description: as §1

[8] = system: E. coli CI5; test: In vivo bladder infection, 24-h-long infection, intravesicular forskolin; design: species or system mouse; conditions: Balb/c mice
Description: as §1

[9] = system: E. coli ORN103(pSH2) invasion into 5637 BECs; test: Gentamicin protection assay, UPEC invasion; format: cell-based, human; conditions: dilution 1:10
Description: (§2) A gentamicin protection assay, including 5637 BECs on 96-well plates (40,000 cells/well), was used to determine the effect of forskolin on UPEC invasion. In this example, the UPEC was either J96 or E. coli ORN103(pSH2). 50 μM forskolin was administered as a pretreatment for 15 min before infection or administered at the same time as the bacteria.

[10] = system: UPEC J96 invasion into 5637 BECs; test: Gentamicin protection assay, UPEC invasion; format: cell-based, human; conditions: dilution 1:10
Description: as §2

[11] = system: fusiform vesicles of mouse bladder BECs; test: Immunofluorescence of bladder sections (Rab27b); format: in vivo; conditions: mouse bladders, antibodies to Rab27b, forskolin 100 μM 1 h
Description: Balb/c mice were either infected with E. coli CI5 as above, or they were treated with either 100 μM forskolin or PBS for 1 h through a catheter. Frozen sections of these bladders were cut using standard methods. Each section was fixed in 100% ethanol for 20 min at −20° C., and blocked in PBS with 1% BSA for 1 h at 4° C. Sections were incubated overnight at 25° C. with primary antibodies to either Rab27b (Santa Cruz Biotechnology, Inc., Santa Cruz, Calif.) or UPIII (Santa Cruz Biotechnology), and washed. Sections were incubated for 1 h at room temperature with secondary antibodies, and washed. To visualize the nuclei, the sections were incubated with Hoechst-33258 for 5 min at room temperature and then washed. All dilutions and washes were with PBS and 1% BSA. Coverslips were viewed as described previously.

[12] = system: bacteria; test: Bacterial viability (data not shown)
[13] = system: phosphodiesterases; conditions: read-out: IC50, non-specific inhibitor of phosphodiesterases; cited from earlier work
[14] = system: human bladder epithelial cells; test: Intracellular cAMP enzyme immunoassay; format: cell-based
Description: In this example, the effect of bacterial lipopolysccharide (LPS), a Toll-like Receptor 4 (TLR4) ligand, on intracellular levels of cAMP was assessed in human bladder epithelial cells (BECs). Methods are as described in Song et al. (2007) PLoS Pathog. 3(4):e60. BECs were seeded onto 6-well plates and grown overnight. The cells were treated with […] E. coli LPS for 6 h at 37° C., followed by washing four times with PBS to remove culture media, followed by an addition of […] of 0.1 M HCl. After a 10 min incubation, the cell lysate was centrifuged and the supernatant was used directly in the cAMP assay. Intracellular concentrations of cAMP were determined using a cAMP enzyme immunoassay kit (Sigma) according to the manufacturer's instructions.

[15] = system: E. coli ORN103(pSH2) within 5637 BECs; test: Intracellular bacteria survival assay (antibiotic protection); format: cell-based, human; conditions: NH4Cl 10 mM, 50 mM; Bafilomycin 1 μM
Description: In this assay, 5637 BECs were infected with ORN103(pSH2) E. coli diluted in RPMI 1640 medium at a multiplicity of infection (MOI) of 100:1. Cells were centrifuged for 5 min at 600 g, and incubated for 60 min at 37° C. Next, the cells were incubated with 100 μg/ml of gentamicin (Invitrogen) in RPMI medium for 30 min, and then with 10 μg/ml gentamicin in RPMI medium. At each time point, the cells were washed using PBS, solubilized with 0.1% Triton X-100 in PBS and plated for colony counts.

[16] = SH2, 50 μM forskolin at the same time as the bacteria
[17] = SH2, 50 μM forskolin pretreatment 15 min before infection
[18] = J96, 50 μM forskolin at the same time as the bacteria
[19] = J96, 50 μM forskolin pretreatment 15 min before infection

## O=S(=O)(NCCNC/C=C/c1ccc(Br)cc1)c1cccc2cnccc12 [H89]
[1]
  release of β-hexosaminidase from E. coli-infected BECs: regulatable
[2]
  E. coli ORN103(pSH2) exocytosis into antibiotic-free medium: reduced

## CCCC(=O)Nc1ncnc2c1ncn2[C@@H]1O[C@@H]2COP(=O)(O)O[C@H]2[C@H]1OC(=O)CCC [dibutyryl-cAMP]
[1]
  release of β-hexosaminidase into extracellular media: stimulated the BECs to release appreciable levels of β-hexosaminidase

## C=C[C@@]1(C)CC(=O)[C@]2(O)[C@@]3(C)[C@@H](O)CCC(C)(C)[C@@H]3[C@H](O)[C@H](OC(C)=O)[C@@]2(C)O1 [forskolin]
[3]; E. coli CI5-infected C3H/HeJ mice, 18 h after forskolin 10 mg/kg i.p., P≦0.0003
  decrease in urine IL-6: 99.6%
[3]; forskolin treatment alone, uninfected mice
  IL-6 levels in uninfected mice: did not alter IL-6 levels
[1]
  release of β-hexosaminidase into extracellular media: stimulated the BECs to release appreciable levels of β-hexosaminidase
[4]
  Percent Control (bladder load), Average: 0.41%
  Percent Control (bladder load), mouse 1: 0.45%
  Percent Control (bladder load), mouse 2: 0.22%
  Percent Control (bladder load), mouse 3: 0.56%
  raw colony counts of bladder homogenate, Average: 83 colony counts
[4]; based on the dilutions
  calculated bladder load of UPEC strain CI5, Average: 1653 colony counts
  calculated bladder load of UPEC strain CI5, mouse 1: 1820 colony counts
  calculated bladder load of UPEC strain CI5, mouse 2: 900 colony counts
  calculated bladder load of UPEC strain CI5, mouse 3: 2240 colony counts
[4]; dilution 1:1
  raw colony counts of bladder homogenate, mouse 1: 91 colony counts
  raw colony counts of bladder homogenate, mouse 2: 45 colony counts
  raw colony counts of bladder homogenate, mouse 3: 112 colony counts
[5]
  decrease of average bacterial load within the bladders compared to control mice: 56%
[6]
  effect on intracellular S. enterica SL1344: no effect
[7]
  intracellular E. coli CI5 eliminated: over 99%
[8]; intravesicular forskolin 100 μM 24 h after infection, P≦0.033
  reduction in the number of E. coli CI5 within bladder compared to saline-treated controls: 79.4%
[8]; intravesicular forskolin 24 h after infection, control 33%, P≦0.01
  mice harboring >10^5 bacteria in their bladders: 4.1%
[9]; [16]
  intracellular bacteria, Mean: 10575 colony counts
  intracellular bacteria, replicate 1: 10980 colony counts
  intracellular bacteria, replicate 2: 8260 colony counts
  intracellular bacteria, replicate 3: 14140 colony counts
  intracellular bacteria, replicate 4: 8920 colony counts
[9]; [17]
  intracellular bacteria, Mean: 9553 colony counts
  intracellular bacteria, replicate 1: 8860 colony counts
  intracellular bacteria, replicate 2: 9060 colony counts
  intracellular bacteria, replicate 3: 10740 colony counts
[10]; [18]
  intracellular bacteria, Mean: 545 colony counts
  intracellular bacteria, replicate 1: 800 colony counts
  intracellular bacteria, replicate 2: 640 colony counts
  intracellular bacteria, replicate 3: 460 colony counts
  intracellular bacteria, replicate 4: 280 colony counts
[10]; [19]
  intracellular bacteria, Mean: 535 colony counts
  intracellular bacteria, replicate 1: 720 colony counts
  intracellular bacteria, replicate 2: 140 colony counts
  intracellular bacteria, replicate 3: 200 colony counts
  intracellular bacteria, replicate 4: 1080 colony counts
[11]
  translocation of fusiform vesicles to the apical plasma membrane: translocation of fusiform vesicles to the apical plasma membrane of mouse bladders was detected
[12]
  effect on bacterial viability: no effect

## C[C@H](CCC(=O)O)C[C@H](C)C[C@H](C)C(=O)/C=C(\O)[C@H](C)C[C@H](C)C/C=C/[C@@H](C)[C@@H](O)[C@@H](C)[C@@H](O)C[C@@H]1CC[C@@](C)([C@H]2CC[C@@](C)([C@@H](C)O)O2)O1 [calcium ionophore, ionomycin]
[1]
  release of β-hexosaminidase into extracellular media: stimulated the BECs to release appreciable levels of β-hexosaminidase

## CC(C)Cn1c(=O)n(C)c(=O)c2[nH]cnc21 [IBMX, 3-Isobutyl-1-methylxanthine]
[13]
  IC50: 2 to 50 µM
[14]
  intracellular cAMP levels compared to untreated controls: significantly increases

## CO/C1=C\C(C)=C\[C@@H](C)[C@@H](O)[C@@H](C)C/C(C)=C/C=C/[C@H](OC)[C@@H]([C@@H](C)[C@@H](O)[C@H](C)[C@@]2(O)C[C@@H](O)[C@H](C)[C@@H](C(C)C)O2)OC1=O [Bafilomycin]
[15]
  E. coli ORN103(pSH2) persistence within 5637 BECs: caused no improvement

## [Cl][Ni][Cl] [NiCl2]
[1]
  release of β-hexosaminidase from E. coli-infected BECs: regulatable
[2]
  E. coli ORN103(pSH2) exocytosis into antibiotic-free medium: reduced

## Cl.N [NH4Cl]
[15]
  E. coli ORN103(pSH2) persistence within 5637 BECs: caused no improvement
